In the RepoRT retention time repository (doi:10.1021/acs.analchem.2c02893):

Experiment: RP, Thermo Scientific Acclaim RSLC 120 C18, 100 × 2.1 mm, 2.2 µm, 30 °C, 0.2 mL/min, estimated dead time 1.1 min; A: 90% water + 10% methanol + 0.01% formic acid + 5 mM ammonium formate, pH 3.61; B: methanol + 0.01% formic acid + 5 mM ammonium formate, pH 3.61; gradient (min/%B) 0/1 1/1 2/39 13/99.9 15/99.9 15.1/1 20.1/1
Details: stereoisomer not certain

Q: For `Cc1nnc2n1-c1ccc(Cl)cc1C(c1ccccc1)=NC2O` (stereo unspecified) [Alprazolam-Hydroxy], which LC retention time is on record?
A: 7.81 min

Q: Which LC retention time does the source give for `CC(Cn1cnc2c(N)ncnc21)OCP(=O)(O)O` (stereo unspecified) [Tenofovir] here?
A: 2.69 min

Q: Which LC retention time does the source give for `Nc1nc2c(ncn2CCC(CO)CO)c(=O)[nH]1` [Penciclovir] here?
A: 2.98 min

Q: With `CCC(C(=O)c1ccc2c(c1)OCO2)N1CCCC1` (stereo unspecified) [MDPBP] as the molecule, how does the LC retention time read?
A: 4.49 min

Q: With `Cc1cn(C2CC(N=[N+]=[N-])C(CO)O2)c(=O)[nH]c1=O` (stereo unspecified) [Zidovudine] as the molecule, how does the LC retention time read?
A: 4.56 min

Q: With `COc1cc(CCN)cc(OC)c1OC` [Mescaline] as the molecule, how does the LC retention time read?
A: 3.88 min

Q: Which LC retention time does the source give for `CN1C(=O)C(O)CC1c1cccnc1` (stereo unspecified) [Cotinine-Hydroxy] here?
A: 3.13 min

Q: For `Cc1c(C(=O)NN2CCCCC2)nn(-c2ccc(Cl)cc2Cl)c1-c1ccc(Cl)cc1` [Rimonabant], which LC retention time is on record?
A: 12.8 min

Q: With `CCCCNc1cc(C(=O)O)cc(S(N)(=O)=O)c1Oc1ccccc1` [Bumetanide] as the molecule, how does the LC retention time read?
A: 7.83 min

Q: For `CC(C)(C)C(NC(=O)c1nn(Cc2ccc(F)cc2)c2ccccc12)C(N)=O` (stereo unspecified) [ADB-FUBINACA], which LC retention time is on record?
A: 10.3 min

Q: For `CCCCn1cc(C(=O)c2ccc(C)c3ccccc23)c2ccccc21` [JWH-073-4-Methyl], which LC retention time is on record?
A: 12.4 min

Q: Which LC retention time does the source give for `CC(O)Cn1cnc2c1c(=O)n(C)c(=O)n2C` (stereo unspecified) [Proxyphylline] here?
A: 4.34 min

Q: For `CCCN1CC(CSC)CC2c3cccc4[nH]cc(c34)CC21` (stereo unspecified) [Pergolide], which LC retention time is on record?
A: 6.19 min

Q: With `CC1C(c2ccccc2)OCCN1C` (stereo unspecified) [Phendimetrazine] as the molecule, how does the LC retention time read?
A: 4.06 min

Q: Which LC retention time does the source give for `CCC(C)CC(C)N` (stereo unspecified) [DMAA (Methylhexanamine)] here?
A: 4.68 min

Q: With `Clc1ccc(CSC(Cn2cncn2)=Nc2ccc(Cl)cc2Cl)cc1` [Imibenconazole] as the molecule, how does the LC retention time read?
A: 12.4 min

Q: Which LC retention time does the source give for `CC(=O)Nc1c(I)c(C(=O)O)c(I)c(C(=O)NCCO)c1I` [Ioxitalamin acid] here?
A: 2.09 min

Q: Which LC retention time does the source give for `CCCCCn1nc(C(=O)Oc2cccc3ccccc23)c2ccccc21` [SDB-005] here?
A: 13.1 min

Q: With `COC(=O)COc1ccc(Cl)cc1C` [MCPA-methylester] as the molecule, how does the LC retention time read?
A: 9.85 min

Q: Which LC retention time does the source give for `COCC(=O)N(c1c(C)cccc1C)C(C)C(=O)OC` (stereo unspecified) [Metalaxyl] here?
A: 8.22 min

Q: For `c1cc[c]([Sn+]([c]2ccccc2)[c]2ccccc2)cc1` [Fentin (triphenylstannylium) (1+)], which LC retention time is on record?
A: 10.4 min

Q: With `CC(C)(C)C(O)C(Cc1ccc(Cl)cc1Cl)n1cncn1` (stereo unspecified) [Diclobutrazol] as the molecule, how does the LC retention time read?
A: 10.7 min

Q: Which LC retention time does the source give for `CC(C(=O)O)c1cccc(C(=O)c2ccccc2)c1` (stereo unspecified) [Ketoprofen] here?
A: 8.53 min

Q: For `Cc1ccc(-c2c(Cl)nc(C#N)n2S(=O)(=O)N(C)C)cc1` [Cyazofamid], which LC retention time is on record?
A: 10.3 min

Q: For `CCN(CC)CCN1c2ccccc2Sc2ccccc21` [Diethazine], which LC retention time is on record?
A: 7.76 min

Q: Which LC retention time does the source give for `COc1ccc(C(CN)C2(O)CCCCC2)cc1` [Venlafaxine- D L-N N-Didesmethyl] here?
A: 6.34 min

Q: With `CNC(C)C(=O)c1ccc(OC)cc1` (stereo unspecified) [Methedrone] as the molecule, how does the LC retention time read?
A: 4.16 min

Q: Which LC retention time does the source give for `CC(C)C(NC(=O)c1nn(Cc2ccc(F)cc2)c2ccccc12)C(N)=O` (stereo unspecified) [AB-FUBINACA] here?
A: 9.59 min

Q: Which LC retention time does the source give for `COC(=O)c1cc(Oc2ccc(Cl)cc2Cl)ccc1[N+](=O)[O-]` [Bifenox] here?
A: 11.5 min

Q: With `O=C1CCc2ccc(OCCCCN3CCN(c4cccc(Cl)c4Cl)CC3)cc2N1` [Aripiprazole] as the molecule, how does the LC retention time read?
A: 8.63 min

Q: For `O=C(O)c1ccccc1C(=O)Nc1cccc2ccccc12` [Naptalam (N-1-Naphthylphthalamic acid)], which LC retention time is on record?
A: 6.75 min

Q: Which LC retention time does the source give for `O=c1[nH]cnc2[nH]ncc12` [Allopurinol] here?
A: 2.19 min

Q: Which LC retention time does the source give for `CC(C)N(C(=O)CS(=O)(=O)O)c1ccc(F)cc1` [Flufenacet-ESA] here?
A: 5.71 min

Q: For `CC(=O)Nc1ccc(O)c(C(=O)O)c1` [N-Acetyl mesalazine], which LC retention time is on record?
A: 3.43 min

Q: For `CNC(=O)Oc1cccc2c1OC(C)(C)C2O` (stereo unspecified) [Carbofuran-3-hydroxy], which LC retention time is on record?
A: 5.09 min

Q: With `OC(Cc1ccccc1Cl)(Cn1cncn1)C1(Cl)CC1` (stereo unspecified) [Prothioconazole-desethio] as the molecule, how does the LC retention time read?
A: 10.5 min

Q: Which LC retention time does the source give for `CC(O)(CS(=O)(=O)c1ccc(F)cc1)C(=O)Nc1ccc(C#N)c(C(F)(F)F)c1` (stereo unspecified) [Bicalutamide] here?
A: 8.71 min

Q: For `CCS(=O)(=O)c1cccnc1S(=O)(=O)NC(=O)Nc1nc(OC)cc(OC)n1` [Rimsulfuron], which LC retention time is on record?
A: 7.09 min

Q: For `CCCCCCCCCCOc1cc2c(=O)c(C(=O)OCC)c[nH]c2cc1OCC` [Decoquinate], which LC retention time is on record?
A: 13.4 min

Q: With `CN1CCN(c2c(F)cc3c(=O)c(C(=O)O)cn4c3c2OCN4C)CC1` [Marbofloxacin] as the molecule, how does the LC retention time read?
A: 4.18 min

Q: With `CCCCCn1cc(C(=O)c2ccc(OC)cc2)c2ccccc21` [RCS-4] as the molecule, how does the LC retention time read?
A: 11.8 min

Q: With `CCN(CC)CCOC(=O)C(O)(c1ccccc1)c1ccccc1` [Benactyzine] as the molecule, how does the LC retention time read?
A: 6.08 min

Q: With `CC(C)N(C(=O)CS(=O)(=O)O)c1ccccc1` [Propachlor-ESA] as the molecule, how does the LC retention time read?
A: 5.46 min

Q: Which LC retention time does the source give for `Nc1c(Cl)c(F)nc(OCC(=O)O)c1Cl` [Fluroxypyr] here?
A: 5.43 min

Q: With `O=C(O)c1cc(N=Nc2ccc(S(=O)(=O)Nc3ccccn3)cc2)ccc1O` [Sulfasalazine] as the molecule, how does the LC retention time read?
A: 6.61 min

Q: For `CCCCCn1nc(C(=O)c2cccc3ccccc23)c2ccccc21` [THJ-018], which LC retention time is on record?
A: 13.1 min

Q: For `CN(C)CCCN1c2ccccc2CCc2ccccc21` [Imipramine], which LC retention time is on record?
A: 8.08 min

Q: For `CCOP(=O)(OCC)SCCSCC.CCOP(=S)(OCC)OCCSCC` [Demeton], which LC retention time is on record?
A: 8.91 min

Q: Which LC retention time does the source give for `CCNC(=O)NC(=O)C(C#N)=NOC` [Cymoxanil] here?
A: 5.6 min

Q: With `CC12CCC3C4CCC(=O)C=C4CCC3C1CCC2OC(=O)CCc1ccccc1` (stereo unspecified) [Nandrolone phenylpropionate] as the molecule, how does the LC retention time read?
A: 13.6 min

Q: For `CN1CCN(C(c2ccccc2)c2ccccc2)CC1` [Cyclizine], which LC retention time is on record?
A: 6.94 min

Q: For `CCOC(=O)c1ccc(O)cc1` [Ethylparaben], which LC retention time is on record?
A: 7.15 min

Q: Which LC retention time does the source give for `CC#Cc1cc(C)nc(Nc2ccccc2)n1` [Mepanipyrim] here?
A: 10.2 min

Q: For `CNC(=C[N+](=O)[O-])NCCSCc1ccc(C[N+](C)(C)[O-])o1` [Ranitidine-N-oxide], which LC retention time is on record?
A: 3.43 min

Q: Which LC retention time does the source give for `O=C1NCCN1Cc1ccc(Cl)nc1` [Imidacloprid-urea] here?
A: 4.71 min

Q: With `CCOP(=S)(OCC)SCSc1ccc(Cl)cc1` [Carbophenothion] as the molecule, how does the LC retention time read?
A: 12.9 min

Q: With `CNC(C)Cc1ccccc1OC` (stereo unspecified) [Methoxyphenamine] as the molecule, how does the LC retention time read?
A: 4.69 min

Q: With `O=S(=O)(Oc1ccc(Cl)cc1)c1ccccc1` [Fenson] as the molecule, how does the LC retention time read?
A: 10.1 min

Q: For `OCCOCCOCCN1CCN(C(c2ccccc2)c2ccc(Cl)cc2)CC1` (stereo unspecified) [Etodroxizine], which LC retention time is on record?
A: 8.33 min

Q: With `COC(=O)C1=C(C)NC(C)=C(C(=O)OC)C1c1ccccc1[N+](=O)[O-]` [Nifedipine] as the molecule, how does the LC retention time read?
A: 8.31 min

Q: Which LC retention time does the source give for `O=C1C2CC=CCC2C(=O)N1SC(Cl)(Cl)Cl` (stereo unspecified) [Captan] here?
A: 8.77 min

Q: Which LC retention time does the source give for `COP(=O)(OC)C(O)C(Cl)(Cl)Cl` (stereo unspecified) [Trichlorfon (Dylox)] here?
A: 5.23 min

Q: For `OC(c1ccc(Cl)cc1)(c1cncnc1)c1ccccc1Cl` (stereo unspecified) [Fenarimol], which LC retention time is on record?
A: 10.1 min

Q: For `O=C(O)CCCO` [GHB Fragm 87], which LC retention time is on record?
A: 1.95 min

Q: Which LC retention time does the source give for `CC(C)OC(=O)C(O)(c1ccc(Cl)cc1)c1ccc(Cl)cc1` [Chloropropylate] here?
A: 12.2 min

Q: For `COc1ccc2c3c1OC1C(O)C=CC4C(C2)NCCC341` (stereo unspecified) [Codeine-Nor], which LC retention time is on record?
A: 3.5 min

Q: For `CCCCCn1cc(C(=O)c2cccc3ccccc23)cc1-c1ccccc1C` [JWH-370], which LC retention time is on record?
A: 13.4 min

Q: Which LC retention time does the source give for `NC(=O)C(CCN1CCCCC1)(c1ccccc1)c1ccccc1` [Fenpipramide] here?
A: 5.19 min

Q: With `OC1(c2ccc(Cl)c(C(F)(F)F)c2)CCN(CCCC(c2ccc(F)cc2)c2ccc(F)cc2)CC1` [Penfluridol] as the molecule, how does the LC retention time read?
A: 10.1 min

Q: For `O=C(OC1CN2CCC1CC2)N1CCc2ccccc2C1c1ccccc1` (stereo unspecified) [Solifenacin], which LC retention time is on record?
A: 7.95 min

Q: For `CC(C)N(CCc1c[nH]c2cccc(O)c12)C(C)C` [DIPT- 4-OH], which LC retention time is on record?
A: 4.34 min

Q: With `N#Cc1nn(-c2c(Cl)cc(C(F)(F)F)cc2Cl)c(N)c1S(=O)C(F)(F)F` (stereo unspecified) [Fipronil] as the molecule, how does the LC retention time read?
A: 10.5 min

Q: Which LC retention time does the source give for `CCCCCCC(C)(C)c1cc(O)c2c(c1)OC(C)(C)C1CC=C(CO)CC21` (stereo unspecified) [HU-210] here?
A: 13.5 min

Q: Which LC retention time does the source give for `CC(CC(C#N)(c1ccccc1)C(C)C)N(C)C` (stereo unspecified) [Isoaminile] here?
A: 5.96 min

Q: For `CSC(C)=NOC(=O)N(C)SN(C)C(=O)ON=C(C)SC` [Thiodicarb], which LC retention time is on record?
A: 7.64 min

Q: With `NC1=NCCN1Cc1ccc(Cl)nc1` [Imidacloprid-guanidine] as the molecule, how does the LC retention time read?
A: 11 min

Q: Which LC retention time does the source give for `CCOP(=S)(OCC)OP(=S)(OCC)OCC` [Sulfotepp] here?
A: 10.8 min

Q: For `CCCCC(=O)OC1(C(=O)CO)C(C)CC2C3CCC4=CC(=O)C=CC4(C)C3(F)C(O)CC21C` (stereo unspecified) [Betamethasone-17-valerate], which LC retention time is on record?
A: 11 min

Q: Which LC retention time does the source give for `CCN(C(=O)SCc1ccccc1)C(C)C(C)C` (stereo unspecified) [Esprocarb] here?
A: 12.2 min

Q: With `CN(C)CCC=C1c2ccccc2C(C)(C)c2ccccc21` [Melitracen] as the molecule, how does the LC retention time read?
A: 8.79 min

Q: With `CC12CCC3C(CCC4=CC(=O)CCC43C)C1CCC2=O` (stereo unspecified) [A4 (4-androsten-3 17-dione)] as the molecule, how does the LC retention time read?
A: 9.36 min

Q: For `O=C(Nc1ccc(F)cc1F)c1cccnc1Oc1cccc(C(F)(F)F)c1` [Diflufenican], which LC retention time is on record?
A: 11.7 min

Q: With `Cc1nc(C)c(Cl)c(NS(=O)(=O)c2ccc(N)cc2)n1` [Sulfaclomide] as the molecule, how does the LC retention time read?
A: 3.96 min

Q: For `CCCC1OC2CC3C4CCC5=CC(=O)C=CC5(C)C4C(O)CC3(C)C2(C(=O)CO)O1` (stereo unspecified) [Budesonide], which LC retention time is on record?
A: 10.3 min

Q: For `CCC(C)C(=O)OC1CC(O)C=C2C=CC(C)C(CCC(O)CC(O)CC(=O)O)C21` (stereo unspecified) [Pravastatin], which LC retention time is on record?
A: 8.36 min

Q: Which LC retention time does the source give for `CC(Cc1ccc(C(C)(C)C)cc1)CN1CCCCC1` (stereo unspecified) [Fenpropidin] here?
A: 8.62 min
